Reference: US7858790B2, “Modulators of muscarinic receptors” (Vertex Pharmaceuticals Incorporated, priority 2006, dated 2010)

Legend:
M1 muscarinic receptor = biological target: T1, M1 muscarinic receptor (Homo sapiens, UniProt P11229); experiment: Functional mobilization of intracellular calcium (FLIPR) in CHO cells expressing M1 muscarinic receptor; assay type: cell-based; conditions: for M1 Activity: CHO cells expressing M1, calcium mobilization; for Emax: CHO, 100% efficacy is the maximum response obtained with the Carbachol control
T1 construct: expressed in transfected cells; host or cells: CHO (M1-CHO recombinant cell line)
T1 sequence (P11229 1-460): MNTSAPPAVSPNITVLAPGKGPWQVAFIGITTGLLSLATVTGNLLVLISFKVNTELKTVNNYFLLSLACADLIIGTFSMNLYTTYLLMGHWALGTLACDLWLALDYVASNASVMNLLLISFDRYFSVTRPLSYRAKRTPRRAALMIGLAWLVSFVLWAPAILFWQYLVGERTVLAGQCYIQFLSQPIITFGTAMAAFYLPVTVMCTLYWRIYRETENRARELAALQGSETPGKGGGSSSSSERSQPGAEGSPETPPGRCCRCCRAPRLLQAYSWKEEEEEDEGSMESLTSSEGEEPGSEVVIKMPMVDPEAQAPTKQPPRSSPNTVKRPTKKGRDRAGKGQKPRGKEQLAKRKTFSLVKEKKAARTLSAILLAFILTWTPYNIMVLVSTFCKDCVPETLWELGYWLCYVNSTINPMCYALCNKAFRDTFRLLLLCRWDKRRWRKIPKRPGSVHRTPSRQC
Protocol: (§1) VI. Assays for Detecting and Measuring Inhibition Properties of Compounds Functional Mobilization of Intracellular Calcium to Determine Muscarinic Receptor Activity:
(§2) CHO cells expressing muscarinic receptors (M1 to M5) are grown as monolayers in tissue culture flasks at 37° C. in a humidified atmosphere containing 5% CO2 and passaged every 3-5 days. The growth media is Dulbecco's modified eagles medium (DMEM, Gibco Cat# 12430-054), containing 25 mM Hepes and supplemented with Fetal Bovine Serum (Hyclone, cat# SH30071.03), 0.1 mM of MEM non-essential amino acids (GIBCO, Cat# 11140-050), 1 mM MEM Sodium Pyruvate (GIBCO Cat# 11360-070) and 100 units/ml of Penicillin G and 100 μg/ml of Streptomycin (GIBCO Cat# 15140-122). The recombinant muscarinic receptor cell lines are grown under antibiotic pressure with media containing 25 μg/ml zeocin and 500 μg/ml G418 (M1-CHO), 4 μg/ml puromycin, 50 μg/ml zeocin and 2.5 μg/ml blasticidin (M2 and M4-CHO) or 50 μg/ml zeocin and 4 μg/ml puromycin (M3 and M5-CHO).
(§3) Cells are harvested at 80-90% confluence using Versene (GIBCO Cat# 15040-066), collected by centrifugation and seeded 18-24 hours prior to running the calcium assay at a density of 5,000-10,000 cells/well in […], clear-bottomed 384-well plates (BD Biocoat, poly-D-lysine, Cat#356663). The day of the experiment, the cells are washed with a plate washer (Bioteck Instruments, ELX 405) using bath buffer (140-mM NaCl, 4.5-mM KCl, 2-mM CaCl2, 1-mM MgCl2, 10-mM Hepes-Na, 10-mM Glucose, pH 7.4, with NaOH) containing 1 mM Probenecid. Next, the calcium dye Fluo-3 (25 μl/well of Fluo-3 μM at 4 μM, Molecular Probes F-1241, in Bath 1 buffer containing 1 mM Probenecid) is added to the 25 μl of Bath 1 remaining in each well after the plate wash and the dye is loaded at 37° C. in the tissue culture incubator for 60-90 min. The fluorescent dye is removed using the plate washer with Bath 1 containing 1 mM Probenecid, leaving 25 μl/well of this solution after the wash. Alternatively, cells can be loaded with the calcium indicator from Molecular Devices (Calcium 3 Assay Reagents, Cat # R7181) adding 5 μl of a 5× solution dye in Bath 1 containing 1 mM Probenecid (10 ml per dye flask cat# R7182 to generate a solution 20×) to 20 μl of the same buffer. After loading for 60 min, the experiment can be run without having to remove the dye.
(§4) Compounds are prepared at a 2× fold concentration in a 96-well plate (round bottom, Costar Corning cat# 3656), by reconstituting the pre-spotted compounds in bath 1 containing 1 mM probenecid. The final concentration DMSO is 0.5%, and the amount of DMSO is normalized across the assay plate. To determine an agonist action of the compounds on muscarinic receptors, the reconstituted compounds are added (25 μl compound/well) to the cell assay plate (containing 25 μl/well) using the multi-channel robotic system of the FLIPR 3 Instrument (Molecular Devices, Sunnyvale, Calif.). To determine a functional inhibitory-action of the compounds on muscarinic receptors, the reconstituted compounds are added (25 μl compound/well) to the assay plate and pre-incubated for 15 min prior to adding 25 μl of Carbachol at 3× the EC80 for each muscarinic subtype. Alternatively, the compounds can be co-applied simultaneously with the agonist. In both assay modes, the fluorescence is recorded for 60 sec (excitation wavelength is […] and emission wavelength 540 nm) using the FLIPR 3 instrument.
(§5) The potency, efficacy and selectivity of the muscarinic compounds were evaluated by screening the compound activity across the whole family (M1 to M5 cells). Compounds were also screened for activity on other proteins such as other GPCRs and ion channels to determine selectivity on M4 receptors.
(§6) Examples of activities and efficacies of the muscarinic compounds of formulae (I, Ia, and Ib) on modulating M1 and M4 receptors are shown below in Table 8. […]

M4 muscarinic receptor = biological target: T2, M4 muscarinic receptor (Homo sapiens, UniProt P08173); experiment: Functional mobilization of intracellular calcium (FLIPR) in CHO cells expressing M4 muscarinic receptor; assay type: cell-based; conditions: for M4 Activity: CHO cells expressing M4, calcium mobilization; for Emax: CHO, 100% efficacy is the maximum response obtained with the Carbachol control
T2 construct: expressed in transfected cells; host or cells: CHO (M4-CHO recombinant cell line)
T2 sequence (P08173 1-479): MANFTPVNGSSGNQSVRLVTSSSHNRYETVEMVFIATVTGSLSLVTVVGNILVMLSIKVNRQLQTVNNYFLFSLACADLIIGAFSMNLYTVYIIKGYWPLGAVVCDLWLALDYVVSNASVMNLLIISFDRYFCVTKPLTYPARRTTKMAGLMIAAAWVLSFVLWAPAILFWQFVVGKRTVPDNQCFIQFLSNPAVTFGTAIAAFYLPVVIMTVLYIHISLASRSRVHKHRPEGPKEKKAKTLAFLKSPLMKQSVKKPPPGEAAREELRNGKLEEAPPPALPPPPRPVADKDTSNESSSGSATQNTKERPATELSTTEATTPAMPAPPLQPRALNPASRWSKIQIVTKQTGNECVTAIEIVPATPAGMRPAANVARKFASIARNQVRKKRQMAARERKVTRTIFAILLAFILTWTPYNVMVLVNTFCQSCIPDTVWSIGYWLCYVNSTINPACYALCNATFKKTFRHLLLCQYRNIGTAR
Protocol: as §1, §2, §3, §4, §5, §6

Row | Structure (SMILES) | M1 Activity (M1 muscarinic receptor) | Emax (M1 muscarinic receptor) [%] | M4 Activity (M4 muscarinic receptor) | Emax (M4 muscarinic receptor) [%]
1 | N#CC1=CCC2(CCN(C3C[C@@H]4CC[C@@H]3C4)CC2)c2ccccc21 (some centres unmarked) [compound 35] | + (activity was measured to be greater than 10.0 μM) | < 25 | ++ (activity was measured to be from 2.0 μM to 10.0 μM) | < 25
2 | CC(C)NC(=O)C1=CCC2(CCN(C3C[C@@H]4CC[C@@H]3C4)CC2)c2ccccc21 (some centres unmarked) [compound 36] | + (activity was measured to be greater than 10.0 μM) | < 25 | + (activity was measured to be greater than 10.0 μM) | < 25
3 | CCCOC(=O)N1CCC(N2CCC3(C=C(C(=O)NC(CC)CC)c4ccccc43)CC2)CC1 [compound 42] | + (activity was measured to be greater than 10.0 μM) | < 25 | + (activity was measured to be greater than 10.0 μM) | < 25
4 | CNC(=O)C1=CC2(CCN(CCC3CCOCC3)CC2)c2ccccc21 [compound 8] | + (activity was measured to be greater than 10.0 μM) | 25 to 100 | + (activity was measured to be greater than 10.0 μM) | < 25
5 | CNC(=O)C1=CC2(CCN(CCCCSC)CC2)c2ccccc21 [compound 49] | + (activity was measured to be greater than 10.0 μM) | < 25 | + (activity was measured to be greater than 10.0 μM) | < 25
6 | CC(C)(C)CCN1CCC2(CC=C(C#N)c3ccccc32)CC1 [compound 51, 1′-(3,3-dimethylbutyl)-2H-spiro[naphthalene-1,4′-piperidine]-4-carbonitrile] | +++ (activity was measured to be less than 2.0 μM) | 25 to 100 | +++ (activity was measured to be less than 2.0 μM) | 25 to 100
7 | CNC(=O)C1=CC2(CCN(CCC(C)CCCC(C)(C)OC)CC2)c2ccccc21 (centres unmarked) [compound 19] | + (activity was measured to be greater than 10.0 μM) | 25 to 100 | + (activity was measured to be greater than 10.0 μM) | < 25
8 | CCC(CC)NC(=O)C1=CC2(CCN(C3CCN(C(=O)OC)CC3)CC2)c2ccccc21 [compound 71] | + (activity was measured to be greater than 10.0 μM) | < 25 | +++ (activity was measured to be less than 2.0 μM) | 25 to 100
9 | CCCC(C)NC(=O)C1=CC2(CCN(CC3CC4C=CC3C4)CC2)c2ccccc21 (centres unmarked) [compound 50] | + (activity was measured to be greater than 10.0 μM) | < 25 | +++ (activity was measured to be less than 2.0 μM) | 25 to 100
10 | CCOC(=O)N1CCC(N2CCC3(CC=C(C(=O)NC(C)C)c4ccccc43)CC2)CC1 [compound 72] | +++ (activity was measured to be less than 2.0 μM) | 25 to 100 | +++ (activity was measured to be less than 2.0 μM) | 25 to 100
11 | CN(C)C(=O)C1=CC2(CCN(C3CCCCC3)CC2)c2ccccc21 [compound 61] | + (activity was measured to be greater than 10.0 μM) | < 25 | +++ (activity was measured to be less than 2.0 μM) | 25 to 100
12 | CCOC(=O)N1C2CCC1CC(N1CCC3(C=C(C(=O)O)c4ccccc43)CC1)C2 (centres unmarked) [compound 13] | +++ (activity was measured to be less than 2.0 μM) | 25 to 100 | +++ (activity was measured to be less than 2.0 μM) | 25 to 100
13 | CCC(CC)NC(=O)C1=CC2(CCN(C3CCCCC3)CC2)c2ccccc21 [compound 73] | + (activity was measured to be greater than 10.0 μM) | < 25 | ++ (activity was measured to be from 2.0 μM to 10.0 μM) | 25 to 100
14 | CCC(CC)NC(=O)C1=CC2(CCN(C3CCN(C(=O)C4CC4)CC3)CC2)c2ccccc21 [compound 45] | + (activity was measured to be greater than 10.0 μM) | < 25 | + (activity was measured to be greater than 10.0 μM) | 25 to 100
15 | C=CCOC(=O)N1CCC(N2CCC3(C=C(C(=O)NC(CC)CC)c4ccccc43)CC2)CC1 [compound 24] | + (activity was measured to be greater than 10.0 μM) | 25 to 100 | ++ (activity was measured to be from 2.0 μM to 10.0 μM) | 25 to 100
16 | CCN(CC)C(=O)C1=CC2(CCN(CCC(C)(C)C)CC2)c2ccccc21 [compound 26] | + (activity was measured to be greater than 10.0 μM) | < 25 | + (activity was measured to be greater than 10.0 μM) | < 25
17 | CN(C)C(=O)C1=CC2(CCN(CC3CCCCC3)CC2)c2ccccc21 [compound 59] | + (activity was measured to be greater than 10.0 μM) | < 25 | +++ (activity was measured to be less than 2.0 μM) | 25 to 100
18 | CC(C)NC(=O)C1=CC2(CCN(CCC(C)(C)C)CC2)c2ccccc21 [compound 70] | + (activity was measured to be greater than 10.0 μM) | 25 to 100 | + (activity was measured to be greater than 10.0 μM) | 25 to 100
19 | CCOC(=O)C1=CC2(CCN(CCC(C)(C)C)CC2)c2ccccc21 [compound 62] | + (activity was measured to be greater than 10.0 μM) | 25 to 100 | +++ (activity was measured to be less than 2.0 μM) | 25 to 100
20 | CCOC(=O)N1CCC(N2CCC3(CC=C(C(=O)N4CCCC4)c4ccccc43)CC2)CC1 [compound 43] | +++ (activity was measured to be less than 2.0 μM) | 25 to 100 | +++ (activity was measured to be less than 2.0 μM) | 25 to 100
